In publication PMC7334220, “Diamond Blackfan anemia is mediated by hyperactive Nemo-like kinase” (Nature Communications, 2020):
Where two headings read alike, the source gives them in different places.

Legend:
NLK = biological target: T1, NLK (Homo sapiens, UniProt Q9UBE8); experiment: NLK in vitro kinase assay (NLK, c-Myb, Raptor substrates); assay type: biochemical
T1 construct: NLK, p38, or ALK5 for in vitro kinase assays were immunopurified from Kp53A1 cells; endogenous in cells; immunoprecipitated with anti-NLK (Abcam AB97642)
T1 sequence (Q9UBE8 1-527): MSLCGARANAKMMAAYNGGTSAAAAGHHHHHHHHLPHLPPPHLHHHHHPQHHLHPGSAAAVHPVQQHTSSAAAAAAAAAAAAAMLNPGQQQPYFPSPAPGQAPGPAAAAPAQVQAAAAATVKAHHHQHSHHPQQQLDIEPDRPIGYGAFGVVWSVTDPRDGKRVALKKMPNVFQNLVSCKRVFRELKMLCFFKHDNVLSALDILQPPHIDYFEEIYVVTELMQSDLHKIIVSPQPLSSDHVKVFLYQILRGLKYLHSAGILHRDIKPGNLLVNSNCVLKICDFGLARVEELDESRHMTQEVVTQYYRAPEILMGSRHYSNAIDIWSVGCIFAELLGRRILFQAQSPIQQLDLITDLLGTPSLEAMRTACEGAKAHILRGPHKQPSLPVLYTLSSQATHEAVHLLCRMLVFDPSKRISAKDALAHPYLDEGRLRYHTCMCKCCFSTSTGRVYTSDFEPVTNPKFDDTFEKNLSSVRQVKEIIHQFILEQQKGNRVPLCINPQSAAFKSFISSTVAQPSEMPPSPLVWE
Experimental: Equivalent protein was loaded between samples. b—blue Transduced progenitors were differentiated for 15 days and sorted for surface expression of CD235 + , CD41 + and CD11b + population NLK mRNA was assessed by qRT-PCR. c Control and shRPS19-transduced CB progenitors were differentiated for 10 days prior to separation into CD71^+ and CD71^- populations and assessed for pThr298-NLK phosphorylation by Western blot analysis. d—purple CB CD34 + progenitors were transduced with shRNA against luciferase (shLuc) or RPS19 (shRPS19) along with CFP-NLK and YFP-NLK and differentiated for 10 days. NLK dimerization was quantified by FRET. e—left panel NLK was immunoprecipitated from transduced differentiating CD71^+ and CD71^- populations after 10 days, and incubated in the presence of ATP, Mg^2+ and dephosphorylated NLK (i orange), c-Myb (ii—blue) and Raptor (iii—green) for 30 min at 37 °C. Phosphorylation was detected by a combination of anti^-phosphoserine-HRP and anti-phosphothreonine-HRP antibodies, or mouse anti-phosphoserine and anti-mouse-HRP antibodies. e—right panel For comparison, NLK in vitro kinase activity was assessed from CD235^+, CD41^+ and CD11b^+ populations enriched after identical treatments. f A panel of eight small molecule p38 inhibitors were titrated into in vitro kinase assays in the presence of activated NLK or p38 from stimulated Kp53A1 cells. The IC50 for NLK and p38 for each compound was calculated. The data are represented diagrammatically with IC50 values represented as vertical lines along a concentration gradient for NLK and p38. Kinase activity is represented as blue and the extent of inhibition is depicted in white. […] Bars represent means ± SD with individual data points overlaid. n = 3 independent experiments performed in triplicate.Statistics: two-tailed Student’s t test, significant *p < 0.05. Also see Supplementary Figs. 3 and 4. Source data are provided as a Source Data file. […] Inhibitors were added to cells at indicated concentrations with a final DMSO concentration of 0.5%. […] IC50 calculations were obtained using 8–9 concentrations of compound and generated using the IC50 Calculator software by AAT Bioquest®. NLK, p38, or ALK5 for in vitro kinase assays were immunopurified from Kp53A1 cells. NLK activation was induced by incubating cells at 32° for 24-48 h, p38 by stimulating with IL-3, IL-6, SCF, and Epo at the same concentrations used for differentiating erythroid progenitors.
For NLK kinase analysis, cultures were treated as indicated and lysed for 30 min at 4 °C in 750 μl of kinase lysis buffer (50 mM Tris [pH 7.4], 5 mM EDTA, 250 mM NaCl, 0.1% Triton X-100, 50 mM NaF, 0.1 trypsin inhibitor unit of aprotinin per ml, 50 μg of phenylmethylsulfonyl fluoride per ml, 100 μM sodium vanadate, 1 μg of leupeptin per ml). For TGFβR1 kinase analysis, cells were lysed in membrane kinase buffer (10 mM Tris-HCl (pH8.0), 140 mM NaCl, 300 mM KCl, 0.5% Triton X-100, and 0.5% sodium deoxycholate with complete protease inhibitor cocktail (Roche)). Extracts were clarified, and equivalent protein was incubated overnight at 4 °C with antibody (NLK: #AB97642; Abcam, TGFβR1: V22; Santa Cruz Biotechnology). Immune complexes were collected with Catch and Release® V2.0 Reversible Immunoprecipitation System and diluted in kinase buffer (25 mM Tris [pH 7.4], 10 mM MgCl2, 1 mM dithiothreitol). When cell numbers were limiting, NLK activity was amplified by adding 0.5 µg dephosphorylated NLK prior to performing kinase reaction. 50 μl of kinase buffer containing NLK or TGFβR1 sample and 5 μM ATP was incubated in the presence of biotinylated substrate (NLK, c-Myb, or Raptor for NLK and Smad2 or Smad3 for TGFβR1) immobilized on streptavidin-coated 96-well plates.

[1] = system: RPS19-insufficient cord blood CD34+ HSPCs; experiment: In vitro differentiation of cord blood CD34+ HSPCs transduced with shRNA against RPS19 (cell count and flow cytometry); assay type: cell-based, human
Experimental: Cells were plated at 2000 cell per well in 96-well plates in the presence or absence of doxycycline. Relative amounts of live cells were quantified by luciferase-based Cell titer-Glo® assay. b TGFβR1 inhibitors were assessed for their ability to increase cell expansion in RPS19-insuffiency. As a control, vehicle alone (no doxycycline) is represented at the far left while all other samples were treated with doxycycline to induce RPS19-insufficiency. c Kit^+ erythroid progenitors were grown in the absence of doxycycline and in the presence of 10 µM of indicated compound. In addition, cells were treated with 5 ng/ml of TGFβ1 for 5 days before being subjected to Cell titer-Glo® assay. d Differentiating cord blood CD34^+ progenitors were transduced with shRNA against luciferase or RPS19 and treated with inhibitors at working concentrations for TGFβ inhibition every three days. […] Cells were counted and CD235^+ erythroid (i and iii) and CD11b^+ myeloid cell (ii and iv) percentages were determined by flow cytometry. The number of erythroid or myeloid cells is expressed as a percentage of the number of that lineage with no cytokine or drug treatment. Bars represent means ± SD with individual data points overlaid. n = 3 independent experiments performed in triplicate. Statistics: two-tailed Student’s t test, significant *p < 0.05. Also see Supplementary Fig. 1. Erythroid expansion is depicted in red while myeloid is in purple. Source data are provided as a Source Data file.
Cells were counted and assessed for cell surface expression of CD235. b Lin-Kit^+ hematopoietic progenitors were obtained from three mouse embryos expressing tetracycline-inducible shRNA against RPS19 at day E14.5 or three untreated mice, and thee mature RPL11^+/+ or three mature RPL11^+/lox mice treated with tamoxifen for eight weeks. […] Values were expressed as a percentage relative to untreated controls. c, d Intracellular phosphorylation of NLK at Thr298 was determined by capillary electrophoresis using the Peggy Sue™ Automated Western blotting platform. After lysis, 4 µg of protein from the CD235^+ population was probed against pThr298-NLK and normalized to GAPDH. […] After counting the total cell population, the ratio of CD235^+ erythroblasts was determined by flow cytometry and number of CD235^+ erythroblasts calculated. This was expressed as a percentage of the average number of erythroid cells present in untreated healthy controls. f NLK phosphorylation was assessed by capillary electrophoresis as above. Bars represent means ± SD with individual data points overlaid. […] Statistics: two-tailed Student’s t test, significant *p < 0.05. Also see Supplementary Fig. 8. Source data are provided as a Source Data file.
Primary human CD34^+ hematopoietic stem and progenitor cells were purified from cord or peripheral blood (New York Blood Center) or from human fetal liver tissue (Advanced Bioscience Resources and University of California, Los Angeles Center for AIDS Research) by using magnetic-activated cell sorting (Miltenyi Biotec) and were cryopreserved. Upon thawing, cells were cultured in x-Vivo15 media (Lonza) containing 10% fetal bovine serum, fms-related tyrosine kinase 3 (50 ng/ml), […] (50 ng/ml), interleukin-3 (IL-3; 20 ng/ml), interleukin-6 (IL-6; 20 ng/ml), and stem cell factor (50 ng/ml). When applied, TGFβ1 was added at 5 ng/ml. Kp53A1 cells were obtained from Javier Leon and cultured in DMEM supplemented with 10% fetal bovine serum at 37 or 32 °C.

p38 = settings: reported, no reference given; read-out: reported IC50 against p38; cited from earlier work
[2] = system: ribosome-competent cord blood CD34+ HSPCs (shLuc); experiment: In vitro differentiation of cord blood CD34+ HSPCs transduced with control shRNA (luciferase); assay type: cell-based, human; settings: ribosome-competent cells; 5 ng/ml TGFβ1; 5 µM compound; 15 days; Fig. 1e
Experimental: Lin-Kit^+ fetal liver cells were obtained from mouse embryos expressing tet-on shRNA against RPS19, at day E14.5-15.5. Cells were plated at 2000 cell per well in 96-well plates in the presence or absence of doxycycline. Relative amounts of live cells were quantified by luciferase-based Cell titer-Glo® assay. b TGFβR1 inhibitors were assessed for their ability to increase cell expansion in RPS19-insuffiency. As a control, vehicle alone (no doxycycline) is represented at the far left while all other samples were treated with doxycycline to induce RPS19-insufficiency. c Kit^+ erythroid progenitors were grown in the absence of doxycycline and in the presence of 10 µM of indicated compound. In addition, cells were treated with 5 ng/ml of TGFβ1 for 5 days before being subjected to Cell titer-Glo® assay. d Differentiating cord blood CD34^+ progenitors were transduced with shRNA against luciferase or RPS19 and treated with inhibitors at working concentrations for TGFβ inhibition every three days. […] Cells were counted and CD235^+ erythroid (i and iii) and CD11b^+ myeloid cell (ii and iv) percentages were determined by flow cytometry. The number of erythroid or myeloid cells is expressed as a percentage of the number of that lineage with no cytokine or drug treatment. […]
Fig. 8 NLK inhibition increases expansion of erythroid progenitors from human and murine models of DBA. a Human cord blood CD34^+ progenitors were transduced with lentivirus co-expressing GFP with shRNA against luciferase (shLuc), RPS19 (shRPS19), or RPL11 (shRPL11). […] Cells were counted and assessed for cell surface expression of CD235. b Lin-Kit^+ hematopoietic progenitors were obtained from three mouse embryos expressing tetracycline-inducible shRNA against RPS19 at day E14.5 or three untreated mice, and thee mature RPL11^+/+ or three mature RPL11^+/lox mice treated with tamoxifen for eight weeks. […] Values were expressed as a percentage relative to untreated controls. c, d Intracellular phosphorylation of NLK at Thr298 was determined by capillary electrophoresis using the Peggy Sue™ Automated Western blotting platform. […]

[3] = Fig. 3f, activated NLK from stimulated Kp53A1 cells, read-out: NLK Observed IC50

SMILES: CCc1nc(-c2cccc(C)c2)c(-c2ccnc(NC(=O)c3ccccc3)c2)s1 [TAK-715]
- IC50 (NLK; [3]): 9.3 µM

SMILES: C[S+]([O-])c1ccc(-c2nc(-c3ccncc3)c(-c3ccc(F)cc3)[nH]2)cc1 (centres unmarked) [SB203580]
- erythroid expansion (CD235) in RPS19-insufficient HSPCs ([1]; 12 days, recommended concentrations, rebuttal Experiment 12): significantly increased
- improvement of erythropoiesis (comparison of SD208 with p38 inhibitors) ([1]; CD235+, 12 days, recommended concentrations, Supplementary Fig. 2b): improved erythropoiesis

SMILES: Cc1cccc(-c2nn3c(c2-c2ccnc4ccc(C(N)=O)cc24)CCC3)n1 [Galunisertib]
- IC50 (p38): 0.405 µM
- IC50 (NLK; Supplementary Fig. 1e, read-out: IC50 against NLK): 1.34 µM
- inhibition of NLK-mediated phosphorylation of NLK substrates NLK, c-Myb and Raptor (NLK; added to activated NLK in vitro, Supplementary Fig. 1c): 40–45%
- increase of erythropoiesis in RPS19-insufficiency compared with control treated cells ([1]; CD235+ erythroid cells after 15 days, inhibitors at working concentrations for TGFβ inhibition every three days, Fig. 1d): 3.2 fold

SMILES: Cc1cccc(-c2[nH]c(C(C)(C)C)nc2-c2ccc3nccnc3c2)n1 [SB525334]
- restoration of erythroid and myeloid expansion of TGFβ-treated cells [2]: restored
- erythropoiesis, % of controls, in TGFβ-treated cells ([1]; RPS19-insufficient cells, 5 ng/ml TGFβ1, 5 µM, Fig. 1e.iii): 128.6%
- effect on erythropoiesis of cells not treated with TGFβ ([1]; RPS19-insufficient cells, 5 µM, Fig. 1e.iii): did not influence

SMILES: Cn1c(NC[C@@H](N)Cc2ccccc2)nc(-c2ccncc2)c(-c2ccc3ccccc3c2)c1=O [AMG-548]
- IC50 (NLK; [3]): 0.0036 µM
